From US20210293825A1, “METHODS FOR PRECISION THERAPEUTIC TARGETING OF HUMAN CANCER CELL MOTILITY AND KITS THEREOF” (UNITED STATES GOVERNMENT AS REPRESENTED BY THE DEPARTMENT …, priority 2018, published 2021)
Where two headings read alike, the source gives them in different places.

Columns and labels:
HSP90β = molecular target: T1, HSP90β (Homo sapiens, UniProt P08238); assay: Biophysical binding assays and DARTS, isolated HSP90β; conditions: ITC, thermal shift, biolayer interferometry, dynamic light scattering, DARTS
T1 construct: made in house; host or cells: Rosetta BL-21 E. coli
T1 sequence (P08238 whole entry): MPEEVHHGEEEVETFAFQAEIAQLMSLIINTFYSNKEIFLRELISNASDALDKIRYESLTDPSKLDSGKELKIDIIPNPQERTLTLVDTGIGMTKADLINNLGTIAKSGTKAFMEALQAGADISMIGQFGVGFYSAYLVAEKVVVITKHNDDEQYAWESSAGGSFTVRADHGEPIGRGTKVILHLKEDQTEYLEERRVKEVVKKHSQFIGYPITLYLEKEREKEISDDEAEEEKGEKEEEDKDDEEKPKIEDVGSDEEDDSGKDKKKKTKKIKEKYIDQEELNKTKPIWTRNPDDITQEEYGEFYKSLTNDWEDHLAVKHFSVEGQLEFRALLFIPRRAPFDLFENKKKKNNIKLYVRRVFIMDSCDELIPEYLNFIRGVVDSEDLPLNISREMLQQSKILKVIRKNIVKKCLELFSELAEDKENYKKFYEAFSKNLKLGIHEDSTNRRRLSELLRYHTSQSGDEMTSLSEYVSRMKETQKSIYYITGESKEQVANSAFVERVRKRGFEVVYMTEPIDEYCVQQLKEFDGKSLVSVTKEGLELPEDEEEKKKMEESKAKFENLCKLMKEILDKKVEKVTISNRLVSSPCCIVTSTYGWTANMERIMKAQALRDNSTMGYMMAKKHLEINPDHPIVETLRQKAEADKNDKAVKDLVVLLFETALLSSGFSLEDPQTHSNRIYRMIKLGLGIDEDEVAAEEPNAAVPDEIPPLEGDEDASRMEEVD
Experimental: Studies used purified recombinant HSP90β or CDC37. […] For DARTS assay, HSP90β or CDC37 were individually pre-incubated with KBU2046, thermolysin added, and reaction products were separated by SDS PAGE and visualized by silver stain (depicted above). NTco—no thermolysin control. However, when the DARTS assay was conducted with both HSP90β and CDC37 present, KBU2046 protected both proteins from degradation in a concentration-dependent manner (see, FIG. 5a).
DARTS provides a sensitive measure of ligand-induced changes in protein structure and dynamics by measuring the ability of a ligand to protect its target from protease digestion (Lomenick, B. et al., Proc Natl Acad Sci USA 106, 21984-9 (2009)). […] The intensity of the CDC37 band increased, that of the HSP90β degradation product decreased, and both effects were statistically significant, concentration-dependent and were evident at 10 nM. […] Further, these findings also indicate that KBU2046 is not acting as a classical HSP90 inhibitor.
Biophysical and Biochemical Binding Assays. […]

[1] = Plasma KBU2046 concentration after dosing in chow; type: in vivo, athymic mice; conditions: Balb/c athymic, mouse, oral
Experimental: Cohorts of N=12 athymic mice bearing human PCa PC3-M cell orthotopic implants (a), or of N=5 non-tumor bearing athymic mice (b), were treated with KBU2046 incorporated into chow, and resultant lung metastasis (a) or plasma KBU2046 concentration (b) measured. Values are the mean±SEM. The relationship between dose and metastasis was evaluated by two-sided ANOVA (a). FIG. 2c a comprehensive characterization of KBU2046 pharmacokinetics. CD1 mice were dosed with 100 mg KBU2046/kg via oral gavage or intravenous injection (iv), and blood collected at the indicated time points (data from mice dosed at 25 mg/kg are in FIG. 12, and corroborate 100 mg/kg findings). For each route and time point, N=3 mice were sampled. Individual data points are the resultant plasma concentrations from individual mice, and are the mean of N=2 measurements. The dotted horizontal line denotes a concentration of 24 nM, which was the concentration of KBU2046 measured in the blood of mice whose metastasis were suppressed by 92% (a-b). […]
KBU2046 Quantification and Pharmacokinetics. […]
Plasma KBU2046 concentrations were measured in duplicate by liquid chromatography-tandem mass spectrometry after sample preparation by solid-phase extraction. […] The mass-to-charge ratios of the precursor-to-product ion reactions monitored were 243.5→125.1 for KBU2046 and 257.0→165.0 for the internal standard. […]

## O=C1c2ccccc2OCC1c1ccc(F)cc1 (racemic) [KBU2046, (±)-3(4-fluorophenyl)chroman-4-one]
HSP90β
  binding to HSP90β: no evidence of KBU2046 binding
[1]; doses that decreased metastasis, read-out: plasma concentrations
  concentration at 35 days: 1.1 to 24 nM
[1]; read-out: concentration in blood of mice whose metastasis were suppressed by 92%
  concentration at 35 days: 24 nM
